US20150073005A1, “COMPOSITION FOR HAIR GROWTH” (ASAHI GLASS COMPANY, LIMITED, priority 2012, published 2015)

Tested on: C3H/HeNSIc mouse
Conditions: in vivo
Excerpt: Hairs on the back of each C3H/HeNSIc mouse (male, 8 weeks old) were carefully dehaired in an area of 2 cm×3 cm to form a medicine application surface. The next day (the day before initiation of the test), mice which were confirmed to have no damage on the application surface of the back, to have a pink color over the entire application surface and to be in the telogen stage of hair growth, were bred in a stainless steel cage (185 W×260 D×175 H (mm)) in three groups each group consisting of 10 mice.
Every day, the application surface was inspected before the application, and the day on which hair growth was observed, was taken as the hair growth day.

CC(C)OC(=O)CCC/C=C\C[C@@H]1[C@@H](/C=C/C(F)(F)COc2ccccc2)[C@H](O)C[C@@H]1O [0.0015% Tafluprost, Tafluprost]
Blackening of the skin at the application surface as visually observed: ^aHair growth without blackening of the skin as visually observed.
